Test results as given in ChEMBL document CHEMBL1201862, “PubChem BioAssay data set” (2004).
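These data come from cells grown in 96-well plates and exposed to compound for 48 hours at five concentrations. GI50 = concentration required for 50% inhibition of growth.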 Activity calls are given as the source filed them. Cut-off read from the data, not from the text of the source: active = GI50 up to about 1.1 µM and inactive = higher.

Experiments:
Experiment in all cases: inhibition of tumour cell growth, NCI panel, 48 h
CCRF-CEM = system: CCRF-CEM
NCI/ADR-RES = system: NCI/ADR-RES
Hs-578T = system: Hs-578T
HCT-15 = system: HCT-15
Malme-3M = system: Malme-3M
EKVX = system: EKVX
NCI-H522 = system: NCI-H522
HCT-116 = system: HCT-116
T47D = system: T47D
SF-295 = system: SF-295
SK-MEL-28 = system: SK-MEL-28
NCI-H460 = system: NCI-H460
MDA-N = system: MDA-N
786-0 = system: 786-0
SNB-75 = system: SNB-75
DU-145 = system: DU-145
SF-539 = system: SF-539
SK-MEL-2 = system: SK-MEL-2
RXF 393 = system: RXF 393

Compound | GI50 (CCRF-CEM) | GI50 (NCI/ADR-RES) | GI50 (Hs-578T) | GI50 (HCT-15) | GI50 (Malme-3M) | GI50 (EKVX) | GI50 (NCI-H522) | GI50 (HCT-116) | GI50 (T47D) | GI50 (SF-295) | GI50 (SK-MEL-28) | GI50 (NCI-H460) | GI50 (MDA-N) | GI50 (786-0) | GI50 (SNB-75) | GI50 (DU-145) | GI50 (SF-539) | GI50 (SK-MEL-2) | GI50 (RXF 393)
CC1(CC2=C(C(=O)NCCO[Si](C)(C)C(C)(C)C)C3(OCCO3)C2=O)OCCO1 | 54.2 µM (inactive) | > 100 µM (inactive) | > 100 µM (inactive) | > 100 µM | 20.4 µM (inactive) | > 100 µM (inactive) | 28.4 µM (inactive) | 68.5 µM (inactive) | 59.8 µM (inactive) | > 100 µM (inactive) | > 100 µM (inactive) | > 100 µM (inactive) | > 100 µM (inactive) | > 100 µM (inactive) | 36.5 µM (inactive) | > 100 µM (inactive) | > 100 µM (inactive) | > 100 µM (inactive) | –
COc1ccc(OC)c(N2C(=O)CSC2c2cc(OC)c(OC)c(OC)c2)c1 (configuration not stated) | 71.8 µM (inactive) | > 100 µM (inactive) | > 100 µM (inactive) | 98.4 µM | > 100 µM (inactive) | > 100 µM (inactive) | 40.6 µM (inactive) | > 100 µM (inactive) | – | > 100 µM (inactive) | > 100 µM (inactive) | > 100 µM (inactive) | 33.4 µM (inactive) | > 100 µM (inactive) | – | > 100 µM (inactive) | > 100 µM (inactive) | > 100 µM (inactive) | –
O=C1C=CC2CCC1C2 (configuration not stated) | 28.4 µM (inactive) | 22.4 µM (inactive) | 28.6 µM (inactive) | 18.2 µM | 14.6 µM (inactive) | > 100 µM (inactive) | 17.7 µM (inactive) | 23.4 µM (inactive) | 19.9 µM (inactive) | 44.2 µM (inactive) | 23.5 µM (inactive) | 30.6 µM (inactive) | 25 µM (inactive) | 40.9 µM (inactive) | 27.5 µM (inactive) | 34.2 µM (inactive) | 34.7 µM (inactive) | 21.4 µM (inactive) | –
COc1ccc([C@]23CCC4(OCC(C)(C)CO4)[C@H]4CON(O[C@H](O[C@@H]5CCCCC5C(C)(C)c5ccccc5)C2)[C@@H]43)cc1OC (some centres not stated) | 29.5 µM (inactive) | 31 µM (inactive) | – | 37.8 µM | 56.6 µM (inactive) | 34 µM (inactive) | 27 µM (inactive) | 33.3 µM (inactive) | 20.2 µM (inactive) | 39 µM (inactive) | 42.6 µM (inactive) | 79.4 µM (inactive) | 28.8 µM (inactive) | 50.5 µM (inactive) | 41.5 µM (inactive) | 59.3 µM (inactive) | 5.81 µM (inactive) | 47.1 µM (inactive) | 25.4 µM (inactive)
CCc1cccc(CC)c1Nc1nc2c(s1)C(=O)c1ccccc1C2=O | 38.9 µM (inactive) | – | 22.2 µM (inactive) | 25.7 µM | 16 µM (inactive) | 16.3 µM (inactive) | 23.4 µM (inactive) | 16.7 µM (inactive) | 33.6 µM (inactive) | 13.7 µM (inactive) | 19.1 µM (inactive) | 16.9 µM (inactive) | 17.5 µM (inactive) | 20.9 µM (inactive) | 11.8 µM (inactive) | 21.6 µM (inactive) | 24.2 µM (inactive) | 18.6 µM (inactive) | 24.8 µM (inactive)
Cc1ns/c(=N\C(=S)N(C)C)n1C | > 100 µM (inactive) | – | – | > 100 µM | > 100 µM (inactive) | > 100 µM (inactive) | > 100 µM (inactive) | > 100 µM (inactive) | – | > 100 µM (inactive) | > 100 µM (inactive) | > 100 µM (inactive) | – | > 100 µM (inactive) | > 100 µM (inactive) | – | > 100 µM (inactive) | > 100 µM (inactive) | > 100 µM (inactive)
C=C(C(=O)OCC)C(=O)OCC | > 100 µM (inactive) | – | > 100 µM (inactive) | > 100 µM | > 100 µM (inactive) | > 100 µM (inactive) | > 100 µM (inactive) | > 100 µM (inactive) | > 100 µM (inactive) | > 100 µM (inactive) | > 100 µM (inactive) | > 100 µM (inactive) | > 100 µM (inactive) | > 100 µM (inactive) | > 100 µM (inactive) | > 100 µM (inactive) | > 100 µM (inactive) | > 100 µM (inactive) | > 100 µM (inactive)
C[C@]12CCC(=O)C=C1CC[C@@H]1[C@@H]2CC[C@]2(C)C(=O)/C(=C\c3ccccc3)C[C@@H]12 | 2.8 µM (inactive) | 14 µM (inactive) | – | 21.9 µM | 29.4 µM (inactive) | 19 µM (inactive) | – | 11.4 µM (inactive) | 17.5 µM (inactive) | 29.9 µM (inactive) | > 46.8 µM (inactive) | 17.1 µM (inactive) | 16 µM (inactive) | 26.1 µM (inactive) | 61.1 µM (inactive) | 33.5 µM (inactive) | 21.6 µM (inactive) | 11.7 µM (inactive) | 41.1 µM (inactive)
